Test results reported in US6737383B1, “Herbicidal oxadiazolidines” (priority 1999, dated 2004).

Assays:
Settings in all cases: 0 to 10 scale where 0 is no effect and 10 is complete control
crabgrass = experiment: Test A crabgrass; assay type: in vivo, Digitaria spp.
Protocol: Seeds of barnyardgrass (Echinochloa crus-galli), crabgrass (Digitaria spp.), morningglory (Ipomoea spp.), and velvetleaf (Abutilon theophrasti) were planted into a sandy loam soil and treated preemergence by soil drench with test chemicals formulated in a non-phytotoxic solvent mixture which includes a surfactant At the same time, these crop and weed species were also treated postemergence sprayed to runoff, with test chemicals formulated in the same manner.
Plants ranged in height from two to eighteen cm and were in the one to two leaf stage for the postemergence treatment. Treated plants and untreated controls were maintained in a greenhouse for approximately eleven days, after which all treated plants were compared to untreated controls and visually evaluated for injury. Plant response ratings, summarized in Table A, are based on a 0 to 10 scale where 0 is no effect and 10 is complete control.

barnyardgrass = experiment: Test A barnyardgrass; assay type: in vivo, Echinochloa crus-galli
Outline: (§1)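 Injury scored visually after about eleven greenhouse days against untreated plants, 0 = no effect, 10 = complete control. Compounds, formulated in surfactant-containing non-phytotoxic solvent, were applied as preemergence soil drench to sandy loam plantings and as postemergence runoff spray at the 1–2 leaf stage.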

velvetleaf = experiment: Test A velvetleaf; assay type: in vivo, Abutilon theophrasti
Outline: as §1

morningglory = experiment: Test A morningglory; assay type: in vivo, Ipomoea spp.
Outline: as §1

CC(C)N(C(=O)n1oc(=O)[nH]c1=O)c1ccc(Cl)cc1 [Compound 377]
0: Plant response rating, Crabgrass (crabgrass; Postemergence, Rate 1000 g/ha) | Plant response rating, Crabgrass (crabgrass; Pre-emergence, Rate 2000 g/ha) | Plant response rating, Barnyardgrass (barnyardgrass; Postemergence, Rate 1000 g/ha) | Plant response rating, Barnyardgrass (barnyardgrass; Pre-emergence, Rate 2000 g/ha) | Plant response rating, Velvetleaf (velvetleaf; Postemergence, Rate 1000 g/ha) | Plant response rating, Velvetleaf (velvetleaf; Pre-emergence, Rate 2000 g/ha) | Plant response rating, Morningglory (morningglory; Postemergence, Rate 1000 g/ha) | Plant response rating, Morningglory (morningglory; Pre-emergence, Rate 2000 g/ha)
